For the assay, the system named is P388 leukemia ip, CD2F1 mice, survival T/C. The assay can be described thus: NCI In Vivo Anticancer Drug Screen. Data for tumor model P388 Leukemia (intraperitoneal) in CD2F1 (CDF1) mice. The conditions noted are these: endpoint: median survival time, higher = longer survival. The gist of the method: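 Mice carrying the transplanted tumor received test compound or vehicle. Survival was recorded in each group, and the value is the treated-group measurement divided by that of the vehicle-treated control group.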

[1] abbreviates: dose: 25.0 mg/kg/injection, schedule: Q01DX009 (ip), vehicle: saline with Tween-80.
[2] abbreviates: dose: 50.0 mg/kg/injection, schedule: Q01DX009 (ip), vehicle: saline with Tween-80.
The mark [3] stands for this setting: dose: 100.0 mg/kg/injection, schedule: Q01DX009 (ip), vehicle: saline with Tween-80.
[4] abbreviates: dose: 50.0 mg/kg/injection, schedule: Q01DX009 (ip), vehicle: Klucel (hydroxypropylcellulose) (HPC).
Setting [5] is: dose: 100.0 mg/kg/injection, schedule: Q01DX009 (ip), vehicle: Klucel (hydroxypropylcellulose) (HPC).
Where [6] appears, read: dose: 200.0 mg/kg/injection, schedule: Q01DX009 (ip), vehicle: Klucel (hydroxypropylcellulose) (HPC).

“And” between values parts separate entries of the source, which are not always exact repeats. Identical values can stand only once. Inconclusive results and toxic doses are left out.

These results are taken from PubChem BioAssay AID330 (DTP/NCI, 2004).

In the case of `O=C(Nc1cccc2ccccc12)Oc1cccc2cccnc12`, the T/C is 89 % of control under setting [1], 86 % of control under setting [2] and 89 % of control under setting [3].
Take `Cn1c(=O)[nH]c(Cl)c(NC=O)c1=O`: the T/C is 98 % of control (dose: 25.0 mg/kg/injection, schedule: Q01DX005 (ip), vehicle: water); 103 % of control (dose: 50.0 mg/kg/injection, schedule: Q01DX005 (ip), vehicle: water); 98 % of control (dose: 100.0 mg/kg/injection, schedule: Q01DX005 (ip), vehicle: water); 109 % of control (dose: 200.0 mg/kg/injection, schedule: Q01DX005 (ip), vehicle: water).
For the molecule `O=C1C(=O)c2ccccc2C(O)=C1CC=C(Br)Br`, the T/C is 100 % of control under setting [2]; 100 % of control under setting [3]; 100 % of control (dose: 100.0 mg/kg/injection, schedule: Q04DX003 (ip), vehicle: saline with Tween-80); 110 % of control (dose: 200.0 mg/kg/injection, schedule: Q04DX003 (ip), vehicle: saline with Tween-80).
Regarding `NC(=Nc1ccccc1)N(c1ccccc1)c1ccc([N+](=O)[O-])cc1`, the T/C (dose: 7.5 mg/kg/injection, schedule: Q01DX009 (ip), vehicle: saline with Tween-80) is 92 % of control; the T/C (dose: 15.0 mg/kg/injection, schedule: Q01DX009 (ip), vehicle: saline with Tween-80) was 100 % of control; the T/C (dose: 30.0 mg/kg/injection, schedule: Q01DX009 (ip), vehicle: saline with Tween-80) was 91 % of control.
As to `O=C(Nc1ccc(C(=O)O)cc1)Nc1ccc(C(=O)O)cc1`, the T/C is 99 % of control (dose: 100.0 mg/kg/injection, schedule: Q04DX002 (ip), vehicle: Klucel (hydroxypropylcellulose) (HPC)) and 109 % of control (dose: 200.0 mg/kg/injection, schedule: Q04DX002 (ip), vehicle: Klucel (hydroxypropylcellulose) (HPC)).
Consider `CCOC(=O)NC(=O)c1c(C)oc(C)cc1=O`, for which the T/C is, setting by setting: under setting [4], 118 % of control; under setting [5], 115 % of control; under setting [6], 107 % of control.
Take `O=C1C=C(Nc2ccc(Br)cc2)C(Nc2ccc(Br)cc2)=CC1=O`: the T/C (dose: 4.68 mg/kg/injection, schedule: Q01DX009 (ip), vehicle: saline with Tween-80) was 97 % of control; the T/C (dose: 9.37 mg/kg/injection, schedule: Q01DX009 (ip), vehicle: saline with Tween-80) is 105 % of control; the T/C (dose: 18.75 mg/kg/injection, schedule: Q01DX005 (ip), vehicle: saline with Tween-80) was 100 % of control; the T/C (dose: 18.75 mg/kg/injection, schedule: Q01DX009 (ip), vehicle: saline with Tween-80) was 106 % of control; the T/C (dose: 37.5 mg/kg/injection, schedule: Q01DX005 (ip), vehicle: saline with Tween-80) was 92 % of control.
As to `Cc1ccc(S(=O)(=O)c2cnc(N3CCN(C)CC3)nc2N)cc1`, the T/C is 100 % of control (dose: 100.0 mg/kg/injection, schedule: Q04DX002 (ip), vehicle: saline); 100 % of control (dose: 200.0 mg/kg/injection, schedule: Q04DX002 (ip), vehicle: saline); 93 % of control (dose: 400.0 mg/kg/injection, schedule: Q04DX002 (ip), vehicle: saline).
As to `O=C(CNC(=O)c1ccccc1)N/N=C/c1c(O)ccc2ccccc12`, the T/C (dose: 60.0 mg/kg/injection, schedule: Q01DX005 (ip), vehicle: saline with Tween-80) was 95 % of control; the T/C (dose: 120.0 mg/kg/injection, schedule: Q01DX005 (ip), vehicle: saline with Tween-80) was 93 % of control; the T/C (dose: 240.0 mg/kg/injection, schedule: Q01DX005 (ip), vehicle: saline with Tween-80) was 101 % of control.
With `O=C1NN2CCCN=C2c2cccnc21`, the T/C by setting is: (dose: 100.0 mg/kg/injection, schedule: Q04DX002 (ip), vehicle: saline with Tween-80) 101 % of control; (dose: 200.0 mg/kg/injection, schedule: Q04DX002 (ip), vehicle: saline with Tween-80) 98 % of control; (dose: 400.0 mg/kg/injection, schedule: Q04DX002 (ip), vehicle: saline with Tween-80) 101 % of control.
Turning to `C[C@H]1CCC2=C(C1)NC(N)=NC2(C)C`, the T/C runs as follows: (dose: 12.5 mg/kg/injection, schedule: Q04DX002 (ip), vehicle: saline with Tween-80) 93 % of control; (dose: 25.0 mg/kg/injection, schedule: Q04DX002 (ip), vehicle: saline with Tween-80) 93 % of control; (dose: 50.0 mg/kg/injection, schedule: Q04DX002 (ip), vehicle: saline with Tween-80) 98 % of control.
For the molecule `Nc1nc(N)c2cc(CNc3ccc(C(=O)NC(C(=O)O)C(=O)O)cc3)ccc2n1`, the T/C runs as follows: (dose: 0.05 mg/kg/injection, schedule: Q01DX009 (ip), vehicle: saline sonified) 168 % of control; (dose: 0.1 mg/kg/injection, schedule: Q01DX009 (ip), vehicle: saline sonified) 204 % of control; (dose: 0.2 mg/kg/injection, schedule: Q01DX009 (ip), vehicle: saline sonified) 86 % of control; (dose: 100.0 micrograms/kg/injection, schedule: Q01DX009 (ip), vehicle: saline sonified) 159 % of control.
Turning to `CCN(CC)c1nc(N(CC)CC)nc(N(CC)CC)n1`, the T/C is, setting by setting: under setting [1], 102 % of control; under setting [2], 104 % of control; under setting [3], 104 % of control; (dose: 200.0 mg/kg/injection, schedule: Q01DX009 (ip), vehicle: saline with Tween-80) 104 % of control.
Turning to `C=C(C)C(=O)OC1C2C(=C)C(=O)OC2CC(C)C2OC2C(=O)C(C)(O)C1OC(=O)C(=C)C` (stereo unspecified), the T/C by setting is: (dose: 12.5 mg/kg/injection, schedule: Q04DX002 (ip), vehicle: Klucel (hydroxypropylcellulose) (HPC)) 110 % of control; (dose: 25.0 mg/kg/injection, schedule: Q04DX002 (ip), vehicle: Klucel (hydroxypropylcellulose) (HPC)) 110 % of control; (dose: 50.0 mg/kg/injection, schedule: Q04DX002 (ip), vehicle: Klucel (hydroxypropylcellulose) (HPC)) 107 % of control.
Regarding `O=C1C=CC(=O)O1` (tested in a mixture with another compound), the T/C reads like this: (dose: 6.25 mg/kg/injection, schedule: Q01DX009 (ip), vehicle: saline) 117 % of control; (dose: 12.5 mg/kg/injection, schedule: Q01DX009 (ip), vehicle: saline) 100 % of control; (dose: 25.0 mg/kg/injection, schedule: Q01DX009 (ip), vehicle: saline) 102 % of control and 108 % of control and 89 % of control; (dose: 25.0 mg/kg/injection, schedule: Q04DX003 (ip), vehicle: saline) 120 % of control; (dose: 50.0 mg/kg/injection, schedule: Q01DX009 (ip), vehicle: saline) 108 % of control [middle of 4 runs]; (dose: 100.0 mg/kg/injection, schedule: Q01DX009 (ip), vehicle: saline) 100 % of control and 108 % of control and 109 % of control. Further, the T/C runs as follows: (dose: 150.0 mg/kg/injection, schedule: Q01DX009 (ip), vehicle: saline) 120 % of control; (dose: 200.0 mg/kg/injection, schedule: Q01DX009 (ip), vehicle: saline) 108 % of control and 115 % of control and 120 % of control.
`C/C(CCCC(C)(C)C(=O)O)=N/Nc1ccc([N+](=O)[O-])cc1[N+](=O)[O-]`: the T/C (dose: 12.5 mg/kg/injection, schedule: Q01DX009 (ip), vehicle: saline with Tween-80) is 104 % of control; the T/C under setting [1] was 100 % of control; the T/C under setting [2] was 92 % of control and 95 % of control.
Consider `Cc1cc(C)c(S(=O)(=O)Sc2nnnn2C)c(C)c1`, for which the T/C was 102 % of control (dose: 12.5 mg/kg/injection, schedule: Q01DX009 (ip), vehicle: Klucel (hydroxypropylcellulose) (HPC)); 104 % of control (dose: 25.0 mg/kg/injection, schedule: Q01DX009 (ip), vehicle: Klucel (hydroxypropylcellulose) (HPC)); 95 % of control and 98 % of control under setting [4]; 98 % of control under setting [6].
In the case of `Clc1ccc(/C=C/c2ccc3ccccc3n2)cc1`, the T/C reads like this: under setting [4], 109 % of control; under setting [5], 102 % of control; under setting [6], 107 % of control; (dose: 400.0 mg/kg/injection, schedule: Q01DX009 (ip), vehicle: Klucel (hydroxypropylcellulose) (HPC)) 93 % of control.
